Test results: patent US20090156621A1, “HCV INHIBITORS” (priority 2004, published 2009)
pIC50: −log10 of the molar value. Counter-ions that a name gives are not always drawn.

tested on: HCV genotype 1b strain Con1 replicon (ET replicon line, Huh7 cells); assay: HCV ET replicon luciferase assay; type: cell-based; conditions: Hepatitis C virus, Huh-7; ET replicon line (Huh7 cells, HCV genotype 1b Con1 replicon), luciferase read-out, 72 hours; compounds in free or salt form
Procedure: Compounds of the current invention are believed useful in the treatment and/or prophylaxis of conditions and diseases associated with HcV infection. Activity mediated through HCV was determined using an ET replicon line.
The Materials used include a Medium comprised of DMEM (1× liquid, high glucose); Invitrogen cat# 11965-092; 100×Penicillin/Streptomycin solution (10,000 Units/mL); Invitrogen cat# 15140-122; 100×Non-essential amino acid solution (10 mM); Invitrogen cat# 11140-050; Fetal bovine serum; JRH Biosciences cat# 12107-500M; Geneticin (50 mg/mL); Invitrogen cat# 10131-035
The Luciferase assay reagents include Steady-Glo Luciferase assay system, cat# E2550 (Promega)
The ET replicon line (see Lohmann et al. (1999), Replication of subgenomic hepatitis C virus RNAs in a hepatoma cell line. Science 285:110-113; Krieger et al. (2001), Enhancement of hepatitis C virus RNA replication by cell culture-adaptive mutations. J. Virol. 75: 4614-4624; and Vrolijk et al. (2003), A replicon-based bioassay for the measurement of interferons in patients with chronic hepatitis C. J. Virol. Meth. 110: 201-209, each herein incorporated by reference with regard to the ET replicon line), includes Huh7 cells stably transfected with HCV genotype 1b strain Con1 replicon. This replicon expresses the firefly luciferase, has the coding region for ubiquitin inserted upstream of the neomycin gene, and carries three cell culture-adaptive mutations that enhance RNA replication cooperatively (E1202G, T1280I, and S2197P). The ET cell line was obtained under license from: ReBLikon GmbH, Nach dem alten Schloss 22, 55239 Gau-Odernheim, Germany.
Cells are maintained at 37° C., 5% CO2, in DMEM with 10% FCS, 1× penicillin/streptomycin, 1× non-essential amino acids, 0.5 mg/mL Geneticin. For passage, cells are washed once with PBS, and incubated at 37° C. with sufficient trypsin (0.05%)/versene to cover the monolayer. Once detached from the flask, cells are mixed with several mLs of DMEM+10% FBS to inactivate the trypsin, then diluted appropriately (usually 1 in 5 or 1 in 10) with sufficient medium to pass to a new flask. For a T225 flask, 40-50 mLs total volume of cells+medium is typically used. To prevent the density dependent drop in replicon RNA, the ET cell line is maintained at sub-confluent (60-80%) levels.
Compounds are diluted in DMSO across the first 10 wells of a Costar V-bottom 96-well plate using a Biomek 2000 Workstation (Beckman-Coulter), with 0.5 log10 dilution intervals. DMSO only is added to the last two columns of the plate. The top concentration of drug in this master plate is typically 2.5 mM. A 1/5 dilution of the compounds is made by adding DMEM+10% FBS with a multichannel pipettor, giving a top concentration of 500 μM. 5 μL of diluted compounds is transferred into black Costar flat bottom 96-well daughter plates using a RapidPlate workstation (Zymark).
Cells are grown to approximately 80% confluency and trypsinised as described above. Cells are counted in a Levy Hemocytometer and diluted to 20,000 cells/ml in DMEM containing 10% FBS, 1× penicillin/streptomycin, 1×NEAAs. (Note: Geneticin is omitted for the assay).
245 μL cell suspension is added to the first 11 columns of the daughter plates prepared as above using a Multidrop dispenser (Titertek). Thus, 5,000 cells are added per well, and the final top concentration of each compound is 10 μM. The twelfth column of each plate is used to generate background readings for the assay. […]

With Brc1ccc2[nH]c3c(c2c1)CCCC3Nc1ccccn1 (centres unmarked) [Example 27, 6-Bromo-N-pyridin-2-yl-2,3,4,9-tetrahydro-1H-carbazol-1-amine Hydrochloride] as the compound, how does the pIC50 read?
The pIC50 was 8.10.

How did the pIC50 turn out when Brc1ccc2[nH]c3c(c2c1)CCCCC3Nc1ncccn1 (centres unmarked) [Example 38, 2-Bromo-N-pyrimidin-2-yl-5,6,7,8,9,10-hexahydrocyclohepta[b]indol-6-amine] was run?
The pIC50 was 7.41.

With Brc1ccc2[nH]c3c(c2c1)CCCC3Nc1ccccc1 (centres unmarked) [Example 13, 6-Bromo-N-Phenyl-2,3,4,9-tetrahydro-1H-carbazol-1-amine] as the compound, how does the pIC50 read?
Its pIC50 is 8.00.

With Clc1ccc2[nH]c3c(c2c1)CCCC3Nc1ncccn1 (centres unmarked) [Example 23, 6-Chloro-N-pyrimidin-2-yl-2,3,4,9-tetrahydro-1H-carbazol-1-amine] as the compound, how does the pIC50 read?
Its pIC50 is 7.28.

How did the pIC50 turn out when Clc1ccc2[nH]c3c(c2c1)CCCC3Nc1ccccc1 (centres unmarked) [Example 14, 6-Chloro-N-phenyl-2,3,4,9-tetrahydro-1H-carbazol-1-amine] was run?
Its pIC50 is 8.30.
